Source: patent US7547679B2, “Ether linked macrolides useful for the treatment of microbial infections” (GlaxoSmithKline istrazivacki center Zagreb d.o.o, priority 2005, dated 2009)
Counter-ions that a name gives are not always drawn.

How the values were obtained:
Assay type in all cases: cell-based
[1] = tested on: sensitive S. pyogenes; assay: MIC, microtiter broth serial dilution test, sensitive S. pyogenes; conditions: Streptococcus pyogenes; sensitive strain; read-out: MIC against sensitive S. pyogenes
[2] = tested on: erythromycin resistant strain of Streptococcus pyogenes; assay: MIC, microtiter broth serial dilution test, erythromycin resistant S. pyogenes; conditions: read-out: MIC against erythromycin resistant strain of Streptococcus pyogenes
[3] = tested on: E. faecalis; assay: MIC, microtiter broth serial dilution test, E. faecalis; conditions: Enterococcus faecalis; read-out: MIC against E. faecalis
[4] = tested on: sensitive S. pneumoniae; assay: MIC, microtiter broth serial dilution test, sensitive S. pneumoniae; conditions: Streptococcus pneumoniae; sensitive strain; read-out: MIC against sensitive S. pneumoniae
[5] = tested on: erythromycin resistant strain of Streptococcus pneumoniae; assay: MIC, microtiter broth serial dilution test, erythromycin resistant S. pneumoniae; conditions: read-out: MIC against erythromycin resistant strain of Streptococcus pneumoniae
[6] = tested on: M. catarrhalis; assay: MIC, microtiter broth serial dilution test, M. catarrhalis; conditions: Moraxella catarrhalis; read-out: MIC against M. catarrhalis

Compound	MIC [1] [µg/mL]	MIC [2] [µg/mL]	MIC [3] [µg/mL]	MIC [4] [µg/mL]	MIC [5] [µg/mL]	MIC [6] [µg/mL]
CC[C@H]1OC(=O)[C@H](C)[C@@H](OC2C[C@@](C)(OC)[C@@H](OCCNCCOCCOCCNc3cc4c(=O)c(C(=O)O)cn(C5CC5)c4cc3Cl)[C@H](C)O2)[C@H](C)[C@@H](O[C@@H]2O[C@H](C)C[C@H](N(C)C)[C@H]2O)[C@](C)(O)C[C@@H](C)CN(C)[C@H](C)[C@@H]2OC(=O)O[C@]12C (stereo partly shown) [Example 2, 4″-O-[2-(2-{2-[2-(3-Carboxy-7-chloro-1-cyclopropyl-4-oxo-1,4-dihydro-quinolin-6-yl-amino)-ethoxy]-ethoxy}-ethylamino)-ethyl]-azithromycin 11,12-cyclic carbonate]	≤ 0.125	≤ 0.25	≤ 1	≤ 0.125	≤ 0.25	–
CC[C@H]1OC(=O)[C@H](C)[C@@H](OC2C[C@@](C)(OC)[C@@H](OCCNCCOCCNc3cc4c(=O)c(C(=O)O)cn(C5CC5)c4cc3Cl)[C@H](C)O2)[C@H](C)[C@@H](O[C@@H]2O[C@H](C)C[C@H](N(C)C)[C@H]2O)[C@](C)(O)C[C@@H](C)CN(C)[C@H](C)[C@@H]2OC(=O)O[C@]12C (stereo partly shown) [Example 3, 4″-O-(2-{2-[2-(3-Carboxy-7-chloro-1-cyclopropyl-4-oxo-1,4-dihydro-quinolin-6-ylamino)-ethoxy]-ethylamino}-ethyl)-azithromycin 11,12-cyclic carbonate]	≤ 0.125	≤ 0.25	≤ 1	≤ 0.125	≤ 0.25	–
CC[C@H]1OC(=O)[C@H](C)[C@@H](O[C@H]2C[C@@](C)(OC)[C@@H](OCCCNC(=O)CCOCCCc3ccc4c(c3)c(=O)c(C(=O)O)cn4N(C)C)[C@H](C)O2)[C@H](C)[C@@H](O[C@@H]2O[C@H](C)C[C@H](N(C)C)[C@H]2O)[C@](C)(OC)C[C@H](C)C(=O)[C@H](C)[C@@H](O)[C@]1(C)O [Example 9, 4″-O-(3-{3-[3-(3-Carboxy-1-dimethylamino-4-oxo-1,4-dihydro-quinolin-6-yl)-propoxy]-propionylamino}-propyl)-6-O-methyl-erythromycin A]	≤ 0.125	≤ 0.25	≤ 1	≤ 0.125	–	≤ 1
CC[C@H]1OC(=O)[C@H](C)[C@@H](O[C@H]2C[C@@](C)(OC)[C@@H](OCCCNC(=O)CCOCCOCCNc3cc4c(=O)c(C(=O)O)cn(C5CC5)c4cc3Cl)[C@H](C)O2)[C@H](C)[C@@H](O[C@@H]2O[C@H](C)C[C@H](N(C)C)[C@H]2O)[C@](C)(O)C[C@@H](C)CN(C)[C@H](C)[C@@H](O)[C@]1(C)O [Example 11, 4″-O-[3-(3-{2-[2-(3-carboxy-7-chloro-1-cyclopropyl-4-oxo-1,4-dihydro-quinolin-6-ylamino)-ethoxy]-ethoxy}-propionylamino)-propyl]-azithromycin]	≤ 0.125	≤ 0.25	≤ 1	≤ 0.125	≤ 0.25	–
CC[C@H]1OC(=O)[C@H](C)[C@@H](O[C@H]2C[C@@](C)(OC)[C@@H](OCCNCCOCCNc3cc4c(cc3F)c(=O)c(C(=O)O)cn4C3CC3)[C@H](C)O2)[C@H](C)[C@@H](O[C@@H]2O[C@H](C)C[C@H](N(C)C)[C@H]2O)[C@](C)(O)C[C@@H](C)CN(C)[C@H](C)[C@H]2OC(=O)O[C@@]21C [Example 16, 4″-O-(2-{2-[2-(3-Carboxy-6-fluoro-1-cyclopropyl-4-oxo-1,4-dihydro-quinolin-7-ylamino)-ethoxy]-ethylamino}-ethyl)-azithromycin 11,12-cyclic carbonate]	≤ 0.125	≤ 0.25	≤ 1	≤ 0.125	≤ 0.25	–
CC[C@H]1OC(=O)[C@H](C)[C@@H](O[C@H]2C[C@@](C)(OC)[C@@H](OCCNCCOCCOCCc3ccc4c(c3)c(=O)c(C(=O)O)cn4CC)[C@H](C)O2)[C@H](C)[C@@H](O[C@@H]2O[C@H](C)C[C@H](N(C)C)[C@H]2O)[C@](C)(OC)C[C@@H](C)C(=O)[C@H](C)[C@@H](O)[C@]1(C)O [Example 18, 4″-O-{2-({2-[(2-{[2-(3-Carboxy-1-ethyl-4-oxo-1,4-dihydro-6-quinolinyl)ethyl]oxy}ethyl)oxy]ethyl}amino)ethyl}-6-O-methyl-erythromycin A formate]	≤ 0.125	≤ 0.25	≤ 1	≤ 0.125	≤ 0.25	≤ 1
CC[C@H]1OC(=O)[C@H](C)[C@@H](O[C@H]2C[C@@](C)(OC)[C@@H](OCCN(C)CCOCCOCCc3ccc4c(c3)c(=O)c(C(=O)O)cn4CC)[C@H](C)O2)[C@H](C)[C@@H](O[C@@H]2O[C@H](C)C[C@H](N(C)C)[C@H]2O)[C@](C)(OC)C[C@@H](C)C(=O)[C@H](C)[C@@H](O)[C@]1(C)O [Example 19, 4″-O-{2-({2-[(2-{[2-(3-Carboxy-1-ethyl-4-oxo-1,4-dihydro-6-quinolinyl)ethyl]oxy}ethyl)oxy]ethyl}methylamino)ethyl}-6-O-methyl-erythromycin A]	≤ 0.125	≤ 0.25	≤ 1	≤ 0.125	≤ 0.25	≤ 1

More lines, now with the values ahead:

MIC [1] [µg/mL]	MIC [2] [µg/mL]	MIC [3] [µg/mL]	MIC [4] [µg/mL]	MIC [5] [µg/mL]	MIC [6] [µg/mL]	Compound
≤ 0.125	≤ 0.25	≤ 1	≤ 0.125	≤ 0.25	≤ 1	CC[C@H]1OC(=O)[C@H](C)[C@@H](O[C@H]2C[C@@](C)(OC)[C@@H](OCCCNCCOCCCc3ccc4c(c3)c(=O)c(C(=O)O)cn4CC)[C@H](C)O2)[C@H](C)[C@@H](O[C@@H]2O[C@H](C)C[C@H](N(C)C)[C@H]2O)[C@](C)(O)C[C@@H](C)CN(C)[C@H](C)[C@@H](O)[C@]1(C)O [Example 5, 4″-O-(3-{2-[3-(3-Carboxy-1-ethyl-4-oxo-1,4-dihydro-quinolin-6-yl)-propoxy]-ethylamnio}-propyl)-azithromycin]
–	≤ 0.25	–	–	≤ 0.25	≤ 1	CC[C@H]1OC(=O)[C@H](C)[C@@H](O[C@H]2C[C@@](C)(OC)[C@@H](OCCCOCCOCCCc3ccc4c(c3)c(=O)c(C(=O)O)cn4CC)[C@H](C)O2)[C@H](C)[C@@H](O[C@@H]2O[C@H](C)C[C@H](N(C)C)[C@H]2O)[C@](C)(O)C[C@@H](C)CN(C)[C@H](C)[C@@H](OC)[C@]1(C)O [Example 8, 4″-O-(3-{2-[3-(3-Carboxy-1-ethyl-4-oxo-1,4-dihydro-quinolin-6-yl)-propoxy]-ethoxy}-propyl)-11-O-methyl azithromycin]
≤ 0.125	≤ 0.25	≤ 1	≤ 0.125	≤ 0.25	≤ 1	CC[C@H]1OC(=O)[C@H](C)[C@@H](O[C@H]2C[C@@](C)(OC)[C@@H](OCCCOCCCOCCCc3ccc4c(c3)c(=O)c(C(=O)O)cn4C3CC3)[C@H](C)O2)[C@H](C)[C@@H](O[C@@H]2O[C@H](C)C[C@H](N(C)C)[C@H]2O)[C@](C)(O)C[C@@H](C)CN(C)[C@H](C)[C@@H](O)[C@]1(C)O [Example 13, 4″-O-(3-{3-[3-(3-Carboxy-1-cyclopropyl-4-oxo-1,4-dihydro-quinolin-6-yl)-propoxy]-propoxy}-propyl)-azithromycin]
≤ 0.125	≤ 0.25	≤ 1	≤ 0.125	≤ 0.25	≤ 1	CC[C@H]1OC(=O)[C@H](C)[C@@H](O[C@H]2C[C@@](C)(OC)[C@@H](OCCCOCCOCCCc3ccc4c(c3)c(=O)c(C(=O)O)cn4N(C)C)[C@H](C)O2)[C@H](C)[C@@H](O[C@@H]2O[C@H](C)C[C@H](N(C)C)[C@H]2O)[C@](C)(O)C[C@@H](C)CN(C)[C@H](C)[C@@H](O)[C@]1(C)O [Example 15, 4″-O-(3-{2-[3-(3-Carboxy-1-dimethylamino-4-oxo-1,4-dihydro-quinolin-6-yl)-propoxy]-ethoxy}-propyl)-azithromycin]
